Assay results: patent US9163256B2, “Mutant receptors and their use in a nuclear receptor-based inducible gene expression system” (priority 2004, dated 2015)

Columns and labels:
Test in all cases: cell-based
[1] = biological target: CfEcR-DEF mutant L132V (Choristoneura fumiferana, UniProt O77255, L415V)
Outline: (§1)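 Mouse NIH3T3 cells were treated with ligand in DMSO, then transfected with GAL4 luciferase reporter (0.16 μg/well) plus mutant CfEcR-DEF receptor constructs (0.04 μg each/well). Cells were kept at 37° C in 5% FBS and lysed 40 hours after ligand addition for dual-luciferase measurement. Fold induction = ligand RLU ÷ DMSO RLU.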

[2] = biological target: CfEcR-DEF mutant Y120W (Choristoneura fumiferana, UniProt O77255, Y403W)
Outline: as §1

[3] = biological target: CfEcR-DEF mutant M125L (Choristoneura fumiferana, UniProt O77255, M408L)
Outline: as §1

[4] = biological target: CfEcR-DEF mutant W238P (Choristoneura fumiferana, UniProt O77255, W521P)
Outline: as §1

[5] = biological target: CfEcR-DEF mutant W238Y (Choristoneura fumiferana, UniProt O77255, W521Y)
Outline: as §1

[6] = biological target: CfEcR-DEF mutant F109L (Choristoneura fumiferana, UniProt O77255, F392L)
Outline: as §1

[7] = biological target: CfEcR-DEF mutant F48L (Choristoneura fumiferana, UniProt O77255, F331L)
Outline: as §1

[8] = biological target: CfEcR-DEF mutant T52E (Choristoneura fumiferana, UniProt O77255, T335E)
Outline: as §1

[9] = biological target: CfEcR-DEF mutant M125P (Choristoneura fumiferana, UniProt O77255, M408P)
Outline: as §1

[10] = biological target: CfEcR-DEF mutant M125E (Choristoneura fumiferana, UniProt O77255, M408E)
Outline: as §1

[11] = biological target: CfEcR-DEF mutant M54W (Choristoneura fumiferana, UniProt O77255, M337W)
Outline: as §1

[12] = biological target: CfEcR-DEF mutant A110W (Choristoneura fumiferana, UniProt O77255, A393W)
Outline: as §1

[13] = biological target: CfEcR-DEF mutant A110E (Choristoneura fumiferana, UniProt O77255, A393E)
Outline: as §1

[14] = biological target: CfEcR-DEF mutant I51L (Choristoneura fumiferana, UniProt O77255, I334L)
Outline: as §1

[15] = biological target: CfEcR-DEF mutant M125C (Choristoneura fumiferana, UniProt O77255, M408C)
Outline: as §1

[16] = biological target: CfEcR-DEF mutant T52L (Choristoneura fumiferana, UniProt O77255, T335L)
Outline: as §1

[17] = biological target: CfEcR-DEF mutant L234M (Choristoneura fumiferana, UniProt O77255, L517M)
Outline: as §1

[18] = biological target: CfEcR-DEF mutant M54T (Choristoneura fumiferana, UniProt O77255, M337T)
Outline: as §1

[19] = biological target: CfEcR-DEF mutant A110P (Choristoneura fumiferana, UniProt O77255, A393P)
Outline: as §1

[20] = biological target: CfEcR-DEF mutant M125R (Choristoneura fumiferana, UniProt O77255, M408R)
Outline: as §1

[21] = biological target: CfEcR-DEF mutant R95H (Choristoneura fumiferana, UniProt O77255, R378H)
Outline: as §1

[22] = NIH3T3, 40 h, read-out: Rel Max FI

Chain of CfEcR-DEF mutant L132V (O77255 entry or part of it L415V): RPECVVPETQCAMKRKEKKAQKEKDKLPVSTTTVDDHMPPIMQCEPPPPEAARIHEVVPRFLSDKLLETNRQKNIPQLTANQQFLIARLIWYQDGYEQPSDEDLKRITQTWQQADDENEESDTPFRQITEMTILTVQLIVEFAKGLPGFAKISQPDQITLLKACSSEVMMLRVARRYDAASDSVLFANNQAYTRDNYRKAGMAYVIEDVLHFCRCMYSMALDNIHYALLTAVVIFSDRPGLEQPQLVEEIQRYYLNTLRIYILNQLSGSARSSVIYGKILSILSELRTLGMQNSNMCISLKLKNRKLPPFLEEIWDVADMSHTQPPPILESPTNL
Chain of CfEcR-DEF mutant L132V (P28702 298-449, further chain): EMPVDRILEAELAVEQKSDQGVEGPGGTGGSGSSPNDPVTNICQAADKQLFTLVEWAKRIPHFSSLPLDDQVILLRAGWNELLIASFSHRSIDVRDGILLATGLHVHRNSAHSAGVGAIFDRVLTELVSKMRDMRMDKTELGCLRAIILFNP
Chain of CfEcR-DEF mutant A110P (O77255 entry or part of it A393P): as the sequence (O77255 entry or part of it L415V) above, with A187P, V209L counted along it
Chain of CfEcR-DEF mutant A110P (P28702 299-449, stated change not applied, further chain): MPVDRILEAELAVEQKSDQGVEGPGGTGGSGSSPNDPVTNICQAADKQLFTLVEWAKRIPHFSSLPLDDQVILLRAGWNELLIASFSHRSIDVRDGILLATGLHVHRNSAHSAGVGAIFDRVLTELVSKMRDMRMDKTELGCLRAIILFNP
Chain of CfEcR-DEF mutant T52L (P28702 298-449): as the sequence (P28702 298-449, further chain) above
Chain of CfEcR-DEF mutant T52L (O77255 entry or part of it T335L): as the sequence (O77255 entry or part of it L415V) above, with T129L, V209L counted along it
Chain of CfEcR-DEF mutant T52E (O77255 entry or part of it T335E): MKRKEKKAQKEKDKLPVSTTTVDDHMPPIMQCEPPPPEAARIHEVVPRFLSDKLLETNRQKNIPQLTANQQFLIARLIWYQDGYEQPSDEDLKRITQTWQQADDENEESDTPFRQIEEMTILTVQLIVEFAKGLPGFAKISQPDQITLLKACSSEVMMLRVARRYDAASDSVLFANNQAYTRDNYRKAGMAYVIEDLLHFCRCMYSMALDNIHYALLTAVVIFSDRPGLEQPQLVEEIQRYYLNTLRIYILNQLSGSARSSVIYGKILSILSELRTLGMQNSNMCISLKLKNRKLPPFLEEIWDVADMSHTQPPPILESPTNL
Chain of CfEcR-DEF mutant T52E (P28702 299-449, further chain): as the sequence (P28702 299-449, stated change not applied, further chain) above
Chain of CfEcR-DEF mutant M125C (O77255 entry or part of it M408C): as the sequence (O77255 entry or part of it L415V) above, with M202C, V209L counted along it
Chain of CfEcR-DEF mutant M125C (P28702 299-449, further chain): as the sequence (P28702 299-449, stated change not applied, further chain) above
Chain of CfEcR-DEF mutant Y120W (O77255 entry or part of it Y403W): as the sequence (O77255 entry or part of it T335E) above, with E117T, Y185W counted along it
Chain of CfEcR-DEF mutant Y120W (P28702 299-449, further chain): as the sequence (P28702 299-449, stated change not applied, further chain) above
Chain of CfEcR-DEF mutant M125E (O77255 entry or part of it M408E): as the sequence (O77255 entry or part of it L415V) above, with M202E, V209L counted along it
Chain of CfEcR-DEF mutant M125E (P28702 299-449, further chain): as the sequence (P28702 299-449, stated change not applied, further chain) above
Chain of CfEcR-DEF mutant R95H (P28702 299-449): as the sequence (P28702 299-449, stated change not applied, further chain) above
Chain of CfEcR-DEF mutant R95H (O77255 entry or part of it R378H): as the sequence (O77255 entry or part of it T335E) above, with E117T, R160H counted along it
Chain of CfEcR-DEF mutant M125P (P28702 299-449): as the sequence (P28702 299-449, stated change not applied, further chain) above
Chain of CfEcR-DEF mutant M125P (O77255 entry or part of it M408P): as the sequence (O77255 entry or part of it T335E) above, with E117T, M190P counted along it

Cc1cc(C)cc(C(=O)N(NC(=O)c2cccc(C(C)C)c2C)C(C)(C)C)c1 [RG-102362, 3,5-Dimethyl-benzoic acid N-tert-butyl-N′-(3-isopropyl-2-methyl-benzoyl)-hydrazide]
EC50 [1]: 0.29 µM
Emax [1, 22]: 74%
EC50 [2]: 4.96 µM
Emax [2, 22]: 67%
EC50 [3]: > 33 µM
Emax [3, 22]: 1%
EC50 [4]: 0.29 µM
Emax [4, 22]: 40%
EC50 [5]: > 33 µM
Emax [5, 22]: 6%
EC50 [6]: ~2.5 µM
Emax [6, 22]: 17%
EC50 [7]: 0.56 µM
Emax [7, 22]: 53%
EC50 [8]: 7.16 µM
Emax [8, 22]: 34%
EC50 [9]: > 33 µM
Emax [9, 22]: 78%
EC50 [10]: 0.83 µM
Emax [10, 22]: 40%
EC50 [11]: 1.24 µM
Emax [11, 22]: 44%
EC50 [12]: 2.99 µM
Emax [12, 22]: 55%
EC50 [13]: 1.02 µM
Emax [13, 22]: 78%
EC50 [14]: 3.35 µM
Emax [14, 22]: 53%
EC50 ([15]; EC50, mutant M125C): ≥ 33 µM
Emax [15, 22]: 15%
EC50 [16]: 0.33 µM
Emax [16, 22]: 61%
EC50 [17]: 2.04 µM
Emax [17, 22]: 43%
EC50 [18]: 0.05 µM
Emax [18, 22]: 66%
EC50 [19]: 0.77 µM
Emax [19, 22]: 64%
EC50 [20]: 10.4 µM
Emax [20, 22]: 0%
EC50 [21]: 3.49 µM
Emax [21, 22]: 62%
